Assay type in all cases: in vivo
The subject of data set [1] is fall panicum. Briefly: Herbicidal activity test against upland field weeds (soil treatment test). Also noted: key to Soil treatment herbicidal activity, Fall panicum: 0 (no control); 100 (complete control). The following applies: 50 g ai/ha, scale 0 (no control) to 100 (complete control). The method in brief:
(§1)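 Pre-emergence test: seeds or rootstocks were sown in fertilized sandy loam, and the next day the soil surface was sprayed with compound at 50 or 75 g a.i./ha in 50% acetone/0.1% Tween-20. Plants were grown in a greenhouse (30±5 °C, 14/10 h light/dark), then visually scored 0–100 against untreated at 14 d (21 d if needed).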

Data set [2] deals with indian jointvetch. Briefly: Herbicidal activity test against upland field weeds (foliar treatment test). Further details: key to Foliar treatment herbicidal activity, Indian jointvetch: 0 (no control); 100 (complete control). The following applies: 50 g ai/ha, scale 0-100. A digest of the protocol: (§2)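 Weeds were raised from seed or rootstocks in horticultural soil in a greenhouse (30±5° C., 14/10 h light/dark), then foliage was hand-sprayed with compound at 50 or 75 g a.i./ha in 50% acetone with 0.1% Tween-20. Control was scored visually 0–100 against untreated plants after 14 days, or 21 if needed.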

In data set [3] the test system is fall panicum. The data set is described as above. The note with it: 50 g ai/ha, scale 0-100; for pest or weed control at 50 g/ha: Panicum dichotomiflorum. The method in brief:
as §2

In data set [4] the test system is crabgrass. The description is as above. The note with it: 50 g ai/ha, scale 0-100; for pest or weed control at 50 g/ha: Digitaria sanguinalis. A digest of the protocol:
as §2

The subject of data set [5] is sorghum. Briefly: Herbicidal activity test against upland field weeds (soil treatment test). Also noted: key to Soil treatment herbicidal activity, Sorghum: 0 (no control); 100 (complete control). The following applies: 50 g ai/ha, scale 0 (no control) to 100 (complete control). A digest of the protocol:
as §1

In data set [6] the test system is barnyard grass. In words: Herbicidal activity test against upland field weeds (foliar treatment test). Also noted: key to Foliar treatment herbicidal activity, barnyard grass: 0 (no control); 100 (complete control). The following applies: 50 g ai/ha, scale 0-100; for pest or weed control at 50 g/ha: Echinochloa crus-galli. A digest of the protocol:
as §2

In data set [7] the test system is cocklebur. In words: Herbicidal activity test against upland field weeds (soil treatment test). Further details: key to Soil treatment herbicidal activity, Cocklebur: 0 (no control); 100 (complete control). The note with it: 50 g ai/ha, scale 0 (no control) to 100 (complete control). A digest of the protocol: as §1
Data set [8] has as its system bindweed. In words: Herbicidal activity test against upland field weeds (foliar treatment test). Also noted: key to Foliar treatment herbicidal activity, Bindweed: 0 (no control); 100 (complete control). The note with it: 50 g ai/ha, scale 0-100. The method in brief: as §2
Data set [9] deals with black nightshade. The description is as above. The following applies: 50 g ai/ha, scale 0-100. Further details: key to Foliar treatment herbicidal activity, black nightshade: 0 (no control); 100 (complete control). The method in brief: as §2
The subject of data set [10] is corn. Briefly: Phytotoxicity test for field crops (soil treatment test). Further details: key: 0 (no harm); 9 (complete withered). The method in brief: (§3)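 Applied as a soil treatment one day after sowing, at final rates of 19˜300 g a.i./ha. Damage is graded visually (0 = no harm, 9 = complete withered) compared with untreated control, 10 and 20 days after treatment.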

In data set [11] the test system is rice. The data set is described as above. Also noted: key: 0 (no harm); 9 (complete withered). A digest of the protocol:
as §3

Data set [12] concerns cotton. The description is as above. Also noted: key: 0 (no harm); 9 (complete withered). The method in brief:
as §3

Data set [13] relates to wheat. The data set is described as above. Also noted: key: 0 (no harm); 9 (complete withered). A digest of the protocol:
as §3

The test system of data set [14] is soybean. The description is as above. Further details: key: 0 (no harm); 9 (complete withered). The note with it: 50 g ai/ha. The method in brief: as §3
[15] abbreviates: 50 g ai/ha, Corn (10 days after treatment).
Setting [16] is: 50 g ai/ha, Corn (20 days after treatment).
[17] abbreviates: 100 g ai/ha, Corn (10 days after treatment).
Where [18] appears, read: 100 g ai/ha, Corn (20 days after treatment).
Where [19] appears, read: 50 g ai/ha, Rice (10 days after treatment).
[20] abbreviates: 50 g ai/ha, Rice (20 days after treatment).
Setting [21] is: 100 g ai/ha, Rice (10 days after treatment).
Setting [22] is: 100 g ai/ha, Rice (20 days after treatment).
Where [23] appears, read: 50 g ai/ha, Cotton (10 days after treatment).
Where [24] appears, read: 50 g ai/ha, Cotton (20 days after treatment).
Setting [25] is: 100 g ai/ha, Cotton (10 days after treatment).
[26] abbreviates: 100 g ai/ha, Cotton (20 days after treatment).
The mark [27] stands for this setting: 50 g ai/ha, Wheat (10 days after treatment).
Setting [28] is: 50 g ai/ha, Wheat (20 days after treatment).
The mark [29] stands for this setting: 100 g ai/ha, Wheat (10 days after treatment).
Setting [30] is: 100 g ai/ha, Wheat (20 days after treatment).

For orientation: pest or weed control means how far the test organism was held down. Consider `Cn1nnc(CS(=O)(=O)Cc2nc(C(F)(F)F)ccc2C(=O)Nc2nnnn2C)n1` [Compound No. 2-105, N-(1-methyl-1H-tetrazol-5-yl)-2-((((2-methyl-2H-tetrazol-5-yl)methyl)sulfonyl)methyl)-6-(trifluoromethyl)nicotinamide], for which the “Soil treatment herbicidal activity, Fall panicum” value in [1] came out at 0. Also, the pest or weed control at 50 g/ha in data set [2] worked out at 95%; in data set [3], 50%; in data set [4], 30%; in data set [7] (Xanthium strumarium), 98%; in [8], 80%. Also, the “Soil treatment herbicidal activity, Sorghum” value in [5] came out at 0. Moreover, the “Foliar treatment herbicidal activity, barnyard grass” value in data set [6] is reported as 0. The “Foliar treatment herbicidal activity, black nightshade” value in [9] is 100.
As for `CCOC(=O)OC(C)N(C(=O)c1ccc(C(F)(F)F)nc1COCc1nnn(C)n1)c1nnnn1C` (centres unmarked) [Compound No. 4-8, ethyl(1-(N-(1-methyl-1H-tetrazol-5-yl)-2-(((2-methyl-2H-tetrazol-5-yl)methoxy)methyl)-6-(trifluoromethyl)nicotinamido)ethyl)carbonate], the “Soil treatment herbicidal activity, Fall panicum” value in data set [1] was found to be 0. For the same molecule, the “Foliar treatment herbicidal activity, Indian jointvetch” value in data set [2] worked out at 100. In addition, in data set [3], the “Foliar treatment herbicidal activity, Fall panicum” value stood at 80. Moreover, the “Foliar treatment herbicidal activity, Crabgrass” value in data set [4] is on record as 98. Further, the “Soil treatment herbicidal activity, Sorghum” value in data set [5] was found to be 70. In addition, the “Foliar treatment herbicidal activity, barnyard grass” value in data set [6] is given as 98. The “Soil treatment herbicidal activity, Cocklebur” value in data set [7] is given as 0. Besides, the “Foliar treatment herbicidal activity, Bindweed” value in [8] amounted to 100. Moreover, in [9], the “Foliar treatment herbicidal activity, black nightshade” value was determined as 100.
In the case of `Cn1nnc(COc2nc(C(F)(F)F)ccc2C(=O)Nc2nnnn2C)n1` [Compound No. 2-1, N-(1-methyl-1H-tetrazol-5-yl)-2-((2-methyl-2H-tetrazol-5-yl)methoxy)-6-(trifluoromethyl)nicotinamide], the “Soil treatment herbicidal activity, Fall panicum” value in [1] came to 0. For the same molecule, the pest or weed control at 50 g/ha in [2] was found to be 60%; in [3] it was 70%; in data set [4], 95%; in data set [6], 98%; in data set [8], 60%. For the same molecule, the “Soil treatment herbicidal activity, Sorghum” value in data set [5] is 0. Also, in data set [7], the “Soil treatment herbicidal activity, Cocklebur” value was 0. For the same molecule, the “Soil treatment phytotoxicity, Corn” value in data set [10] (setting [15]), in [10] (setting [16]), in [10] (setting [17]) and in data set [10] (setting [18]) was 0 each time. The “Soil treatment phytotoxicity, Rice” value was determined as 3 in data set [11] (setting [19]), 3 in [11] (setting [20]), 5 in data set [11] (setting [21]) and 5 in [11] (setting [22]). Also, the “Soil treatment phytotoxicity, Cotton” value in data set [12] (setting [23]) amounted to 1; in data set [12] (setting [24]) it was 2; in data set [12] (setting [25]), 4; in data set [12] (setting [26]), 7. Further, the “Soil treatment phytotoxicity, Wheat” value in data set [13] (setting [27]), in data set [13] (setting [28]), in data set [13] (setting [29]) and in data set [13] (setting [30]) was 0 throughout. In data set [9], the “Foliar treatment herbicidal activity, black nightshade” value worked out at 100.
Take `COc1nc(COCc2nc(C(F)(F)F)ccc2C(=O)Nc2nnnn2C)nn1C` [Compound No. 2-129, 2-(((5-methoxy-1-methyl-1H-1,2,4-triazol-3-yl)methoxy)methyl)-N-(1-methyl-1H-tetrazol-5-yl)-6-(trifluoromethyl)nicotinamide]: the “Soil treatment herbicidal activity, Fall panicum” value in data set [1] turned out to be 0. Moreover, the pest or weed control at 50 g/ha is 60% in [2]; 50% in data set [3]; 70% in [4]; 90% in [6]; 40% in [8]. For the same molecule, the “Soil treatment herbicidal activity, Sorghum” value in [5] turned out to be 0. Further, the “Soil treatment phytotoxicity, Soybean” value in data set [14] (Soybean (10 days after treatment)) and in [14] (Soybean (20 days after treatment)) was 0 in each case. Further, the “Soil treatment phytotoxicity, Corn” value in [10] (setting [15]), in data set [10] (setting [16]), in data set [10] (setting [17]) and in data set [10] (setting [18]) was 0 throughout. The “Soil treatment phytotoxicity, Rice” value is listed as 5 in data set [11] (setting [19]), 6 in data set [11] (setting [20]), 5 in [11] (setting [21]) and 7 in data set [11] (setting [22]). Also, the “Soil treatment phytotoxicity, Cotton” value came to 0 in data set [12] (setting [23]), 0 in data set [12] (setting [24]), 1 in data set [12] (setting [25]) and 5 in data set [12] (setting [26]). The “Soil treatment phytotoxicity, Wheat” value in [13] (setting [27]), in [13] (setting [28]), in data set [13] (setting [29]) and in [13] (setting [30]) was 0 each time. Further, the “Foliar treatment herbicidal activity, black nightshade” value in [9] is 100.
For `COC(=O)OC(C)N(C(=O)c1ccc(C(F)(F)F)nc1COCc1nnn(C)n1)c1nnnn1C` (centres unmarked) [Compound No. 4-4, methyl(1-(N-(1-methyl-1H-tetrazol-5-yl)-2-(((2-methyl-2H-tetrazol-5-yl)methoxy)methyl)-6-(trifluoromethyl)nicotinamido)ethyl)carbonate], the “Foliar treatment herbicidal activity, Indian jointvetch” value in [2] worked out at 100. In addition, the “Foliar treatment herbicidal activity, Fall panicum” value in data set [3] worked out at 98. The “Foliar treatment herbicidal activity, Crabgrass” value in data set [4] is given as 98. Also, the “Soil treatment herbicidal activity, Sorghum” value in data set [5] is 0. In [6], the “Foliar treatment herbicidal activity, barnyard grass” value is on record as 100. Moreover, the “Soil treatment herbicidal activity, Cocklebur” value in [7] amounted to 0. Moreover, the “Foliar treatment herbicidal activity, Bindweed” value in data set [8] stood at 100. Moreover, in [9], the “Foliar treatment herbicidal activity, black nightshade” value worked out at 100.
